Experimental data published in ChEMBL document CHEMBL5543113, “Amphiphilic α-Peptoid-deoxynojirimycin Conjugate-based Multivalent Glycosidase Inhibitor for Hypoglycemic Effect and Fluorescence Imaging” (J Med Chem, 2024).
Activity calls are given as the source filed them. No cut-off for these calls is given here.

Tests used:
[1] = Inhibition of Aspergillus niger Alpha-glucosidase incubated for 10 mins by Lineweaver-Burk plot analysis
[2] = Inhibition of rice Alpha-glucosidase incubated for 10 mins by Lineweaver-Burk plot analysis; parameters: species or system Oryza sativa
[3] = Inhibition of C57BL/6J mouse Alpha-glucosidase incubated for 10 mins by Lineweaver-Burk plot analysis
[4] = target: Alpha-glucosidase (Saccharomyces cerevisiae S288c) (UniProt P53341+P38158+P07265); assay: Inhibition of Saccharomyces cerevisiae Alpha-glucosidase at 1 mM incubated for 10 mins by absorbance based microplate spectrophotometric analysis; type: protein assay
Mus musculus [5] = assay: Hypoglycemic activity in KKAy diabetic mouse model assessed as blood glucose level at 1.6 mg/kg, po co-administered with 1 g/kg maltose and measured after 15 mins by glucometer (reference value: 453 +/- 38.6 mg/dl); type: functional; details: 0.25 h
Mus musculus [6] = assay: Hypoglycemic activity in KKAy diabetic mouse model assessed as blood glucose level at 1.6 mg/kg, po co-administered with 1 g/kg maltose and measured after 30 mins by glucometer (reference value: 491.4 +/- 22.5 mg/dl); type: functional; details: 0.5 h
Mus musculus [7] = assay: Hypoglycemic activity in KKAy diabetic mouse model assessed as blood glucose level at 1.6 mg/kg, po co-administered with 1 g/kg maltose and measured after 60 mins by glucometer (reference value: 498.6 +/- 31.6 mg/dl); type: functional; details: 1 h
Mus musculus [8] = assay: Hypoglycemic activity in KKAy diabetic mouse model assessed as blood glucose level at 1.6 mg/kg, po co-administered with 1 g/kg maltose and measured after 120 mins by glucometer (reference value: 278.4 +/- 14.9 mg/dl); type: functional; details: 2 h
Mus musculus [9] = assay: Hypoglycemic activity in KKAy diabetic mouse model assessed as decrease in PBG level at 1.6 mg/kg, po co-administered with 1 g/kg maltose measured after 15 mins by glucometer relative to control; type: functional; parameters: scale not given: the % may be the effect or the level left; details: 0.25 h
Mus musculus [10] = assay: Hypoglycemic activity in KKAy diabetic mouse model assessed as decrease in PBG level at 1.6 mg/kg, po co-administered with 1 g/kg maltose measured after 30 mins by glucometer relative to control; type: functional; parameters: scale not given: the % may be the effect or the level left; details: 0.5 h
Mus musculus [11] = assay: Hypoglycemic activity in KKAy diabetic mouse model assessed as decrease in PBG level at 1.6 mg/kg, po co-administered with 1 g/kg maltose measured at 60 to 120 mins by glucometer; type: functional, organism-based; details: time 60-120 min
Mus musculus [12] = assay: Hypoglycemic activity in C57BL/6J mouse assessed as molar reduction in PBG level at 1.6 mg/kg, po co-administered with maltose and measured after 30 mins by glucometer relative to control; type: functional; parameters: scale not given: the % may be the effect or the level left; details: 0.5 h
Mus musculus [13] = assay: Hypoglycemic activity in C57BL/6J mouse assessed as blood glucose level at 0.4 mg/kg, po co-administered with maltose and measured after 15 mins by glucometer (380.8 +/- 20.6 mg/dl); type: functional; details: 0.25 h
Mus musculus [14] = assay: Hypoglycemic activity in C57BL/6J mouse assessed as blood glucose level at 0.8 mg/kg, po co-administered with maltose and measured after 15 mins by glucometer (380.8 +/- 20.6 mg/dl); type: functional; details: 0.25 h
Mus musculus [15] = assay: Hypoglycemic activity in C57BL/6J mouse assessed as blood glucose level at 1.6 mg/kg, po co-administered with maltose and measured after 15 mins by glucometer (380.8 +/- 20.6 mg/dL); type: functional; details: 0.25 h
Mus musculus [16] = assay: Hypoglycemic activity in C57BL/6J mouse assessed as blood glucose level at 0.4 mg/kg, po co-administered with maltose and measured after 30 mins by glucometer (380.8 +/- 20.6 mg/dL); type: functional; details: 0.5 h
Mus musculus [17] = assay: Hypoglycemic activity in C57BL/6J mouse assessed as blood glucose level at 0.8 mg/kg, po co-administered with maltose and measured after 30 mins by glucometer (380.8 +/- 20.6 mg/dL); type: functional; details: 0.5 h
Mus musculus [18] = assay: Hypoglycemic activity in C57BL/6J mouse assessed as blood glucose level at 1.6 mg/kg, po co-administered with maltose and measured after 30 mins by glucometer (380.8 +/- 20.6 mg/dL); type: functional; details: 0.5 h
Mus musculus [19] = assay: Hypoglycemic activity in C57BL/6J mouse assessed as decrease in PBG level at 0.4 mg/kg, po co-administered with maltose and measured after 15 mins by glucometer relative to control; type: functional; parameters: scale not given: the % may be the effect or the level left; details: 0.25 h
Mus musculus [20] = assay: Hypoglycemic activity in C57BL/6J mouse assessed as decrease in PBG level at 0.8 mg/kg, po co-administered with maltose and measured after 15 mins by glucometer relative to control; type: functional; parameters: scale not given: the % may be the effect or the level left; details: 0.25 h
Mus musculus [21] = assay: Hypoglycemic activity in C57BL/6J mouse assessed as decrease in PBG level at 1.6 mg/kg, po co-administered with maltose and measured after 15 mins by glucometer relative to control; type: functional; parameters: scale not given: the % may be the effect or the level left; details: 0.25 h
Mus musculus [22] = assay: Hypoglycemic activity in C57BL/6J mouse assessed as decrease in PBG level at 0.4 mg/kg, po co-administered with maltose and measured after 30 mins by glucometer relative to control; type: functional; parameters: scale not given: the % may be the effect or the level left; details: 0.5 h
Mus musculus [23] = assay: Hypoglycemic activity in C57BL/6J mouse assessed as decrease in PBG level at 0.8 mg/kg, po co-administered with maltose and measured after 30 mins by glucometer relative to control; type: functional; parameters: scale not given: the % may be the effect or the level left; details: 0.5 h
Mus musculus [24] = assay: Hypoglycemic activity in C57BL/6J mouse assessed as decrease in PBG level at 1.6 mg/kg, po co-administered with maltose and measured after 30 mins by glucometer relative to control; type: functional; parameters: scale not given: the % may be the effect or the level left; details: 0.5 h
Mus musculus [25] = assay: Hypoglycemic activity in C57BL/6J mouse assessed as reduction in PBG level measured per DNJ unit at 0.4 mg/kg, po co-administered with maltose and measured at 15 to 30 mins by glucometer relative to control; type: functional; parameters: scale not given: the % may be the effect or the level left; details: time 15-30 min
Mus musculus [26] = assay: Hypoglycemic activity in C57BL/6J mouse assessed as reduction in PBG level measured per DNJ unit at 0.8 mg/kg, po co-administered with maltose and measured at 15 to 30 mins by glucometer relative to control; type: functional; parameters: scale not given: the % may be the effect or the level left; details: time 15-30 min
Mus musculus [27] = assay: Hypoglycemic activity in C57BL/6J mouse assessed as reduction in PBG level measured per DNJ unit at 1.6 mg/kg, po co-administered with maltose and measured at 15 to 30 mins by glucometer relative to control; type: functional; parameters: scale not given: the % may be the effect or the level left; details: time 15-30 min
Mus musculus [28] = assay: Hypoglycemic activity in KKAy diabetic mouse model assessed as blood glucose level at 1.6 mg/kg, po co-administered with maltose and measured after 15 mins by glucometer (reference value: 582.6 +/- 22.9 mg/dl); type: functional; details: 0.25 h
Mus musculus [29] = assay: Hypoglycemic activity in KKAy diabetic mouse model assessed as blood glucose level at 1.6 mg/kg, po co-administered with maltose and measured after 30 mins by glucometer (reference value: 582.6 +/- 22.9 mg/dl); type: functional; details: 0.5 h
Mus musculus [30] = assay: Hypoglycemic activity in KKAy diabetic mouse model assessed as blood glucose level at 1.6 mg/kg, po co-administered with maltose and measured after 60 mins by glucometer (reference value: 582.6 +/- 22.9 mg/dl); type: functional; details: 1 h
Mus musculus [31] = assay: Hypoglycemic activity in KKAy diabetic mouse model assessed as blood glucose level at 1.6 mg/kg, po co-administered with maltose and measured after 120 mins by glucometer (reference value: 582.6 +/- 22.9 mg/dl); type: functional; details: 2 h
Mus musculus [32] = assay: Hypoglycemic activity in KKAy diabetic mouse model assessed as decrease in PBG level at 1.6 mg/kg, po co-administered with maltose and measured after 15 mins by glucometer relative to control; type: functional; parameters: scale not given: the % may be the effect or the level left; details: 0.25 h
Mus musculus [33] = assay: Hypoglycemic activity in KKAy diabetic mouse model assessed as decrease in PBG level at 1.6 mg/kg, po co-administered with maltose and measured after 30 mins by glucometer relative to control; type: functional; parameters: scale not given: the % may be the effect or the level left; details: 0.5 h
Mus musculus [34] = assay: Hypoglycemic activity in KKAy diabetic mouse model assessed as decrease in PBG level at 1.6 mg/kg, po co-administered with maltose and measured after 60 mins by glucometer relative to control; type: functional; parameters: scale not given: the % may be the effect or the level left; details: 1 h
Mus musculus [35] = assay: Hypoglycemic activity in KKAy diabetic mouse model assessed as decrease in PBG level at 1.6 mg/kg, po co-administered with maltose and measured after 120 mins by glucometer relative to control; type: functional; parameters: scale not given: the % may be the effect or the level left; details: 2 h
Mus musculus [36] = assay: Hypoglycemic activity in KKAy diabetic mouse model assessed as molar decrease in PBG level at 1.6 mg/kg, po co-administered with maltose and measured after 30 mins by glucometer relative to control; type: functional; parameters: scale not given: the % may be the effect or the level left; details: 0.5 h
[37] = Self assembly property of the compound in water assessed as mean diameter at 1 x 10^-4 M by dynamic light scattering spectrometric analysis; type: physicochemical; details: buffer, 100 µM; dose 1 10^-4M
[38] = Self assembly property of the compound in water assessed as diameter at 1 x 10^-4 M by transmission electron microscopic analysis; type: physicochemical; details: buffer, 100 µM; dose 1 10^-4M
[39] = Self assembly property of compound in citric acid-phosphate buffer at pH 2 at 1 x 10^-4 M assessed as diameter by dynamic light scattering spectrometric analysis; type: physicochemical; details: pH 2, 100 µM, dose 1 10^-4M
[40] = Self assembly property of compound in citric acid-phosphate buffer at pH 3 to 7 at 1 x 10^-4M assessed as diameter by dynamic light scattering spectrometric analysis; type: physicochemical; details: pH 3, 100 µM, dose 1 10^-4M

SMILES: OC[C@H]1NC[C@H](O)[C@@H](O)[C@@H]1O [DUVOGLUSTAT]
- Ki [1]: 3.6 µM
- Ki [2]: 0.017 µM
- Ki [3]: 0.039 µM
- inhibition [4]: inactive
- Activity (Mus musculus [5]): 354 mg/dL
- Activity (Mus musculus [6]): 476.4 mg/dL
- Activity (Mus musculus [7]): 489 mg/dL
- Activity (Mus musculus [8]): 296.4 mg/dL
- Activity (Mus musculus [9]): 21.8%
- Activity (Mus musculus [10]): 3.1%
- Activity (Mus musculus [11]): inactive

SMILES: OCCN1C[C@H](O)[C@@H](O)[C@H](O)[C@H]1CO [MIGLITOL]
- Ki [1]: 20.6 µM
- Ki [2]: 0.18 µM
- Ki [3]: 1.46 µM
- inhibition [4]: inactive
- Activity (Mus musculus [12]): 2.8%
- Activity (Mus musculus [13]): 348.8 mg/dL
- Activity (Mus musculus [14]): 331.9 mg/dL
- Activity (Mus musculus [15]): 298.8 mg/dL
- Activity (Mus musculus [16]): 349.5 mg/dL
- Activity (Mus musculus [17]): 318.2 mg/dL
- Activity (Mus musculus [18]): 297.4 mg/dL
- Activity (Mus musculus [19]): 6.2%
- Activity (Mus musculus [20]): 10.7%
- Activity (Mus musculus [21]): 19.6%
- Activity (Mus musculus [22]): 8.2%
- Activity (Mus musculus [23]): 16.5%
- Activity (Mus musculus [24]): 21.9%
- Activity (Mus musculus [25]): 4.2%
- Activity (Mus musculus [26]): 4.3%
- Activity (Mus musculus [27]): 2.8%
- Activity (Mus musculus [28]): 532.2 mg/dL
- Activity (Mus musculus [29]): 535.8 mg/dL
- Activity (Mus musculus [30]): 512.4 mg/dL
- Activity (Mus musculus [31]): 397.2 mg/dL
- Activity (Mus musculus [32]): 3.2%
- Activity (Mus musculus [33]): 8.6%
- Activity (Mus musculus [34]): 7.7%
- Activity (Mus musculus [35]): 9.4%
- Activity (Mus musculus [36]): 1.1%

SMILES: CCCCCCCCCCCCCCCCCCNC(=O)CN(Cc1cn(CCCN2C[C@H](O)[C@@H](O)[C@H](O)[C@H]2CO)nn1)C(=O)CN(Cc1cn(CCCN2C[C@H](O)[C@@H](O)[C@H](O)[C@H]2CO)nn1)C(=O)CN(Cc1cn(CCCN2C[C@H](O)[C@@H](O)[C@H](O)[C@H]2CO)nn1)C(=O)CN(Cc1cn(CCCN2C[C@H](O)[C@@H](O)[C@H](O)[C@H]2CO)nn1)C(C)=O
- Ki [1]: 37.4 µM
- Ki [2]: 0.44 µM
- Ki [3]: 15.4 µM
- inhibition [4]: inactive
- Activity [37]: 252 nm
- Activity [38]: 79 nm
- Activity [39]: 211 nm
- Activity [40]: ~ 250 nm
